Test results published in patent US20200078404A1, “COMBINATION OF A CELL THERAPY AND AN IMMUNOMODULATORY COMPOUND” (Juno Therapeutics, Inc., priority 2017, published 2020).

Key:
[1] = tested on: anti-BCMA CAR T cells with OPM-2; assay: Cytokine production of anti-BCMA CAR T cells co-cultured with OPM-2 with or without lenalidomide; format: cell-based, human
RPMI-8226 target cells [2] = assay: Cytolytic activity against RPMI-8226 after seven days incubation with BCMA-conjugated beads; format: cell-based, human
Procedure: Cytolytic activity of CAR+ T cells after incubation with BCMA-conjugated beads was assessed by incubation with the BCMA-expressing target cell line RPMI-8226, which is a BCMA+ multiple myeloma cell line. […] The number of viable cells was normalized to cells at day 0 prior to incubation with the RPMI-8226 target cells.

[3] = tested on: anti-CD19 CAR-expressing T cells; assay: Surface markers after anti-idiotypic antibody stimulation; format: cell-based, human
Source text: CAR-expressing T cells were stained for CD3, CD4, CD8 and the surrogate marker for CAR expression, and also for the following markers: CD25, PD-1, and CD69.

RPMI-8226 target cells [4] = assay: Serial restimulation on BCMA-conjugated beads, cytolytic activity against RPMI-8226 at each reset; format: cell-based, human; conditions: preincubated with 5 μM lenalidomide for 7 days or 14 days
Procedure: Anti-BCMA CAR T cell compositions were generated from three different donors, each containing T cells expressing the same anti-BCMA CAR, thawed, and were incubated for seven days with beads (diameter about 4.5 μm) at a 1:1 ratio of beads to cells from a 50 μg/mL BCMA-conjugated bead composition generated as described in Example 9.
Cells from each condition were plated in triplicate. The % cell killing compared to vehicle only control (set at 100%) was determined.

RPMI-8226 = conditions: read-out: sensitive to lenalidomide; cited from earlier work
OPM-2 target cells = assay: Cytolytic activity of anti-BCMA CAR T cells co-cultured with OPM-2 target cells with or without lenalidomide; format: cell-based, human
Procedure: […]. The OPM-2 cells were labeled with NucLight Red (NLR) to permit tracking of target cells by microscopy substantially as described above. […] […].
[…]. Cytolytic activity was measured by loss of red fluorescent cells. […].

RPMI-8226 target cells [5] = assay: Cytolytic activity of anti-BCMA CAR T cells co-cultured with RPMI-8226 target cells with or without lenalidomide; format: cell-based, human
Procedure: […]. […] Cells from each condition were plated in triplicate.

anti-BCMA CAR+ T cells = assay: Serial restimulation of anti-BCMA CAR+ T cells with irradiated MM1.S cells: expansion, cytokines, CD25; format: cell-based, human
Procedure: Anti-BCMA CAR+ T cells generated as described above were plated in triplicate at 1×10^5 cells/well on 96-well plates.
Every 3-4 days (start of each new round), CAR T cells were counted. […] 8 rounds of stimulation were carried out during a 31 day culture period. For some rounds, at re-plating, cells were assessed for phenotypic markers via flow cytometry.
Culture conditions were reset every 3-4 days. Replating was maintained for 28 days or until the cell count was <50,000 cells. Experiments were performed in triplicate in 3 donors.

[6] = tested on: anti-CD19 CAR-expressing T cells; assay: Cytokine production of anti-CD19 CAR-expressing T cells incubated with K562.CD19 target cells; format: cell-based, human; conditions: concentration-dependent, E:T 5:1 and 2.5:1, 24 hours, vs vehicle
anti-BCMA CAR T cells = assay: Cytokines of anti-BCMA CAR T cells stimulated with BCMA-conjugated beads (supernatant, intracellular); format: cell-based, human; conditions: 24 hours
Procedure: Cryofrozen anti-BCMA CAR T cells, produced substantially as described in Example 2 and formulated at a 1:1 ratio of CD4+ and CD8+ T cells, were thawed.
Twenty four hours after addition of BCMA-conjugated beads, the presence of TNF-α, IFNγ, and IL-2 in culture supernatants was assessed.
In a further exemplary study, two different anti-BCMA CAR T cell compositions were generated from different donors, each containing T cells expressing the same anti-BCMA CAR. The cells were thawed and incubated with beads (diameter about 4.5 μm) from a 5 μg/mL or 200 μg/mL BCMA-conjugated bead composition generated as described in Example 1. […] Twenty four hours after addition of BCMA-conjugated beads, IL-2 production by the anti-BCMA CAR+ T cells was assessed in culture supernatants.
The cells were gated on transduced, live CD3+ cells, and assessed by flow cytometry for intracellular cytokine accumulation of IFNγ and TNFα in CD4+ and CD8+ cells.

anti-CD19 CAR+ T cells = assay: Serial restimulation of anti-CD19 CAR+ T cells with K562-CD19 cells: expansion; format: cell-based, human; conditions: 1 μM lenalidomide, 4 rounds of stimulation, 12 days, two donors
Procedure: The ability of anti-CD19 CAR+ T cells to expand ex vivo following repeated stimulations was assessed using methods substantially as described in Example 2. […] For each donor, cells were harvested every 3-5 days from each experimental condition in the wells and counted, and restimulated with new target cells using the same culture conditions after resetting cell number to initial seeding density for each round. A total of 4 rounds of stimulation during a 12 day culture period were carried out. For each round of stimulation, the total number of cells was determined, and the results were depicted as the fold-change of cell number after stimulation (FIG. 17A) or number of doublings compared to initial number (FIG. 17B).

[7] = 0.1 μM lenalidomide, repeated stimulation

For `Nc1cccc2c1CN(C1CCC(=O)NC1=O)C2=O` (stereo not drawn) [lenalidomide, 3-(4-amino-1-oxo-1,3-dihydro-2H-isoindol-2-yl)piperidine-2,6-dione], the “cytokine production and/or accumulation (IFNγ, IL-2, TNF-α)” value ([1]; 0.01-10 μM lenalidomide, E:T 1:1, 24 hours, four donors) was “enhance cytokine production and/or accumulation by antigen-stimulated anti-BCMA CAR+ T cells in a dose-dependent manner”, the “IFN-γ, IL-2 and TNF-α production” value ([1]; all CAR T donors, concentration-dependent) was “significantly increased IFN-γ, IL-2, and TNF-α production” and the “cytokine production (IFNγ, IL-2)” value ([1]; healthy donor and multiple myeloma patient, E:T 1:1, 24 hours) was “increased by lenalidomide in a concentration-dependent manner”. For the same compound, the target cell viability (RPMI-8226 target cells [2]; RPMI 8226 cells cultured with lenalidomide, no CAR T) was “did not directly influence target cell viability”, the killing activity (RPMI-8226 target cells [2]; lenalidomide present during the cell killing assay) was “did not substantially affect killing activity” and the “cytolytic activity of the CAR+ T cells” value (RPMI-8226 target cells [2]; preincubation with 5 μM lenalidomide during seven day bead incubation) was “increased cytolytic activity of the CAR+ T cells”. For the same compound, the “surface markers CD25 and CD69” value ([3]; CD4+ and CD8+ CAR-expressing T cells, day 4, some donors) was “increase in surface markers CD25 and CD69”, the “expression of PD-1” value ([3]; day 4, unchanged or decreased in the other donors) was “increased in the presence of Compound 1 or lenalidomide in cells generated from at least one donor” and the cytolytic activity (RPMI-8226 target cells [4]) was “exhibited greater cytolytic activity”. The IC50 (RPMI-8226) was 6.43 µM, the “cytolytic activity of anti-BCMA CAR+ T cells” value (OPM-2 target cells; 0.01-10 μM lenalidomide, E:T 1:1, 7 days, four donors) was “enhance cytolytic activity of the anti-BCMA CAR+ T cells against OPM-2 target cells, in a dose-dependent manner” and the “antigen-specific anti-BCMA CAR-T cytolytic activity” value (OPM-2 target cells; healthy donor and multiple myeloma patient, E:T 0.3:1, 6 to 7 days) was “increased by lenalidomide in a concentration-dependent manner”. For the same compound, the “anti-BCMA CAR T cytolytic activity” value (OPM-2 target cells; increased concentrations of lenalidomide, all donors) was “Increased anti-BCMA CAR T cytolytic activity against OPM-2 target cells”, the “target cell killing by anti-BCMA CAR+ T cells” value (RPMI-8226 target cells [5]; 1 μM or 10 μM lenalidomide, E:T 0.3:1, day 6, vs absence of lenalidomide) was “greater degree of target cell killing” and the “time at which the effect of lenalidomide on cytolytic activity emerges” value (RPMI-8226 target cells [5]; in culture) was > 50 h. For the same compound, the “treatment effect of lenalidomide on CAR T cytolytic activity” value (RPMI-8226 target cells [5]; three healthy donors and one IMiD-refractory patient, 0.01-10 μM) was “appeared to be donor-dependent”, the projected cell counts (anti-BCMA CAR+ T cells; 0.1 μM lenalidomide, 3 donors, over 28 days) was “increased projected cell counts” and the “CAR T CD25 expression (MFI)” value (anti-BCMA CAR+ T cells; [7]) was “significant increase in CAR T CD25 expression”. For the same compound, the “IL-2, IFN-γ, and TNF-α production in the media” value (anti-BCMA CAR+ T cells; [7]) was “significant increase”, the CAR-T expansion (anti-BCMA CAR+ T cells; 0.1 μM lenalidomide, six donors) was “an increase or no change in CAR-T expansion” and the “expansion of anti-BCMA CAR T cells” value (anti-BCMA CAR+ T cells; 0.01-10 μM lenalidomide, by day 14, vs no lenalidomide) was “increased expansion of anti-BCMA CAR T cells”. For the same compound, the “expansion of cells expressing two different human anti-BCMA CARs” value (anti-BCMA CAR+ T cells; beginning between day 21 and day 28) was “increase expansion in both cell populations”, the “cytokine production (IFN-γ, IL-2, TNF-α)” value [6] was “increased” and the “intracellular cytokine levels of IFNγ and TNFα” value (anti-BCMA CAR T cells; 0.1 μM or 1 μM lenalidomide, 5, 50 or 200 μg/mL beads) was “increased by lenalidomide”. The IL-2 production (anti-BCMA CAR T cells; 1 μM or 5 μM lenalidomide, 5 or 200 μg/mL BCMA beads, two donors) was “increased cytokine production”, the “BCMA-induced CAR+ T cell cytokine production (IFNγ, IL-2, TNF-α)” value (anti-BCMA CAR T cells; 5 μM lenalidomide, 5 or 50 μg/mL BCMA beads) was “increased BCMA-induced CAR+ T cell cytokine production” and the “cell expansion of anti-CD19 CAR+ T cells” value (anti-CD19 CAR+ T cells) was “no change or only a minor effect in cell expansion”.
